Active and inactive are the calls of the source. The rule behind the calls is not given here.
Assays:
[1] = target: T1, Progesterone receptor (Homo sapiens, UniProt P06401); assay: Human progesterone receptor (hPR) agonist activity using cotransfection assay in CV-1 cells.; type: functional, cell-based
T1 sequence (P06401 whole entry): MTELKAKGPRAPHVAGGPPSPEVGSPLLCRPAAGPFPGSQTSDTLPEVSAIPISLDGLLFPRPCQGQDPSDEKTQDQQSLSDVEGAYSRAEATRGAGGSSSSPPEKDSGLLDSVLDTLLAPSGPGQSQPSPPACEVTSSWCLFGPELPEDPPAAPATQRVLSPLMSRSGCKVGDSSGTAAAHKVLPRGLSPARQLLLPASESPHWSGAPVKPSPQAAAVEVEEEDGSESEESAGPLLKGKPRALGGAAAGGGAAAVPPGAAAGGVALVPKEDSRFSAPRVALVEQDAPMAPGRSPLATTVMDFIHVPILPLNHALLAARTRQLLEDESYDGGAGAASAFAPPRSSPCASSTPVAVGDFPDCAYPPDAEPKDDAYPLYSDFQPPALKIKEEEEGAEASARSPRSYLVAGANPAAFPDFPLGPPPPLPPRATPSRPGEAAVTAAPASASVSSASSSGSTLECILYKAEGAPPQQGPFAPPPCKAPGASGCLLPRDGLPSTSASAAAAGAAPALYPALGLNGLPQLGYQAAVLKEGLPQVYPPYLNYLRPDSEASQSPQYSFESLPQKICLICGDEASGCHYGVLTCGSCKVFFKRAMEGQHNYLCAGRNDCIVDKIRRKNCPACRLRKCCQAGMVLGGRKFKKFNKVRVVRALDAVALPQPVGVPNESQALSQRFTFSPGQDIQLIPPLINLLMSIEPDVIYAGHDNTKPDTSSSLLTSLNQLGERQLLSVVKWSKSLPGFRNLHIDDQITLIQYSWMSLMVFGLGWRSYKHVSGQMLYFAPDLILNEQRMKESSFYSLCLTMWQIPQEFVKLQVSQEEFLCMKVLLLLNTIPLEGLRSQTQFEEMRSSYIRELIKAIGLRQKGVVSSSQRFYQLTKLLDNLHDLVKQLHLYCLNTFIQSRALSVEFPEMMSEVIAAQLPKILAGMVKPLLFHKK

[2] = target: T1, Progesterone receptor; assay: Binding affinity against human progesterone receptor (hPR) in a competitive binding assay
[3] = target: T1, Progesterone receptor; assay: Antagonist activity against human progesterone receptor (hPR) in T47D human breast cancer cell line; type: functional, cell-based
[4] = target: T1, Progesterone receptor; assay: Antagonist activity against human progesterone receptor (hPR) using cotransfection assay in CV-1 cells; type: functional, cell-based
[5] = target: T1, Progesterone receptor; assay: Human progesterone receptor (hPR) agonist activity in T47D human breast cancer cell line; NA=not active; type: functional, cell-based
[6] = target: T1, Progesterone receptor; assay: Human progesterone receptor (hPR) agonist activity in T47D human breast cancer cell line; type: functional, cell-based
[7] = target: T2, Androgen receptor (Homo sapiens, UniProt P10275); assay: Cross-reactivity as binding to human androgen receptor (hAR); type: functional
T2 sequence (P10275 whole entry): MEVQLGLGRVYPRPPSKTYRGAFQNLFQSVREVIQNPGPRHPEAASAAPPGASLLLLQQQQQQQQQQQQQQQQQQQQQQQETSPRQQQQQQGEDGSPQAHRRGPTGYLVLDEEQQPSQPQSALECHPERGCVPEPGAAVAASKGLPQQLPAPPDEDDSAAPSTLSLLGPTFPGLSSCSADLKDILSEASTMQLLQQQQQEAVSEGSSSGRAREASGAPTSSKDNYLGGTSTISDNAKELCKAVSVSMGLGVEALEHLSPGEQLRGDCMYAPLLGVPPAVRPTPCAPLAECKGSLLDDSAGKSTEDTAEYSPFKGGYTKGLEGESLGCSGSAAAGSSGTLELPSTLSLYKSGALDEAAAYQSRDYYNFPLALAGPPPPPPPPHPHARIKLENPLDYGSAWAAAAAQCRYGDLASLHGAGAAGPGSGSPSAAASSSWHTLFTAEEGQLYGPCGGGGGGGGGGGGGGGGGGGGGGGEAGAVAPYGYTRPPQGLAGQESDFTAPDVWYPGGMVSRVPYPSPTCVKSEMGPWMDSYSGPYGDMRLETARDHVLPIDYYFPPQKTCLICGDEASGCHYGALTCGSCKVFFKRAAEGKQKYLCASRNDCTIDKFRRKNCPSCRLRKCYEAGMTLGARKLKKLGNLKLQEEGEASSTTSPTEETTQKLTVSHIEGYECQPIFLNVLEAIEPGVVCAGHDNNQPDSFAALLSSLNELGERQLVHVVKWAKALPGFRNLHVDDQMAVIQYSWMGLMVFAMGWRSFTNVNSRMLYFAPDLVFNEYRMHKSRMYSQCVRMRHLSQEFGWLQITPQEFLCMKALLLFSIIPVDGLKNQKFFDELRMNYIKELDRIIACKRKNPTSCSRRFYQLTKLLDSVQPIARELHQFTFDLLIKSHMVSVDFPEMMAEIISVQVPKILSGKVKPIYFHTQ

[8] = target: T3, Mineralocorticoid receptor (Homo sapiens, UniProt P08235); assay: Cross-reactivity as binding to human mineralocorticoid receptor (hMR); type: functional
T3 sequence (P08235 whole entry): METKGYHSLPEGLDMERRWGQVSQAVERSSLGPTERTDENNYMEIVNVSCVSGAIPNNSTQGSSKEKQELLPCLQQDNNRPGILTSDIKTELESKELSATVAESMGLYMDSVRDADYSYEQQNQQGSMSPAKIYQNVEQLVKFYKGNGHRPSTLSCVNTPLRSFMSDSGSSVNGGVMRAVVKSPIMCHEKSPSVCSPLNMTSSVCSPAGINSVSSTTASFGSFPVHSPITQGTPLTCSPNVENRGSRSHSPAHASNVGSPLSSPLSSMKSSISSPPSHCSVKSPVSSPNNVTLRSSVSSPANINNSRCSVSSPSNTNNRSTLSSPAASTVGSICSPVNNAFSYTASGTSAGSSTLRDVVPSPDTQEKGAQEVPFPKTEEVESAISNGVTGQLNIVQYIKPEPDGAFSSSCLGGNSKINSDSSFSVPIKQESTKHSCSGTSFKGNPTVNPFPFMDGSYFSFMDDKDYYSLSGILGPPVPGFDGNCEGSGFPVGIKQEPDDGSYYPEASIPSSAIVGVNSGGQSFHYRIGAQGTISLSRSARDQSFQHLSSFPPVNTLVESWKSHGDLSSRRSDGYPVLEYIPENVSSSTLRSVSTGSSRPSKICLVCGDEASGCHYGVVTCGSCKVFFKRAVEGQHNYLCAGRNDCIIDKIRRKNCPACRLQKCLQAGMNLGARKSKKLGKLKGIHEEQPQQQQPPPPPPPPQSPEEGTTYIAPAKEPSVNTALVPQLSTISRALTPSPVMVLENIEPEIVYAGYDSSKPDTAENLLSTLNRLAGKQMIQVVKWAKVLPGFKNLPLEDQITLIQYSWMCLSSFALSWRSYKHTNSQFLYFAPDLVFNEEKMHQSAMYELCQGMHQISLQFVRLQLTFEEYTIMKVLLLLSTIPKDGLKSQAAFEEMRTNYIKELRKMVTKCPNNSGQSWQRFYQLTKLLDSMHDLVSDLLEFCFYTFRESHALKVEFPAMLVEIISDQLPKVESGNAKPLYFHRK

[9] = target: T4, Glucocorticoid receptor (Homo sapiens, UniProt P04150); assay: Cross-reactivity as binding to human glucocorticoid receptor (hGR); type: functional
T4 sequence (P04150 whole entry): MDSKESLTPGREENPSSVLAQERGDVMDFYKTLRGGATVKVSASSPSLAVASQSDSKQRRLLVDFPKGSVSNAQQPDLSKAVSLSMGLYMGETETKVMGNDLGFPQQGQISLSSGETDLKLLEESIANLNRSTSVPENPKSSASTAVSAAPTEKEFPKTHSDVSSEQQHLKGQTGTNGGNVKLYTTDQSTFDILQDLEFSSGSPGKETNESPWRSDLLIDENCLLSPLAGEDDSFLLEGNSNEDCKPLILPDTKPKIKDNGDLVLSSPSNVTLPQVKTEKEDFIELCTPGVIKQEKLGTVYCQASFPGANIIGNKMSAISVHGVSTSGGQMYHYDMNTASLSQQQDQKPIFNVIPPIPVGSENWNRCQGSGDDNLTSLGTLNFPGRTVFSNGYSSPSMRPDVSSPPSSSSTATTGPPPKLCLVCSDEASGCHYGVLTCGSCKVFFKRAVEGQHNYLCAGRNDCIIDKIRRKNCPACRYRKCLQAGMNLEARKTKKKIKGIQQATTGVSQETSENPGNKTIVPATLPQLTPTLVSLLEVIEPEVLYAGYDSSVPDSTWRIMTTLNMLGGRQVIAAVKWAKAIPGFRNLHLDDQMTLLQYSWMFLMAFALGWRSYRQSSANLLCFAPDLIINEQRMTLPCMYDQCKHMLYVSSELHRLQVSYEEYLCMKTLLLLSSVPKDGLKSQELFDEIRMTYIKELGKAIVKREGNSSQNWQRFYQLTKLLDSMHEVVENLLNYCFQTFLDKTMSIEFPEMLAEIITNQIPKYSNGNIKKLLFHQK

[10] = target: T3, Mineralocorticoid receptor; assay: Cross-reactivity as binding to human mineralocorticoid receptor (hMR); NA=not active; type: functional
[11] = target: T5, Mineralocorticoid receptor (Homo sapiens) (UniProt P08235); assay: Percent inhibition of mineralocorticoid receptor transcriptional activity at aldosterone EC50; NA=not active; type: functional
T5 sequence (whole entry): T3 sequence (P08235 whole entry)

[12] = target: T1, Progesterone receptor; assay: Human progesterone receptor (hPR) agonist activity expressed in CV-1 cells; type: functional, cell-based
[13] = target: T6, Glucocorticoid receptor (Homo sapiens) (UniProt P04150); assay: Percent inhibition of glucocorticoid receptor transcriptional activity at Dexamethasone EC50; not active; type: functional
T6 sequence (whole entry): T4 sequence (P04150 whole entry)

[14] = target: T4, Glucocorticoid receptor; assay: Cross-reactivity as binding to human glucocorticoid receptor (hGR); NA=not active; type: functional
[15] = target: Estrogen receptor (Homo sapiens) (UniProt Q92731+P03372); assay: Percent inhibition of estrogen receptor transcriptional activity at estradiol EC50; NA=not active; type: functional

Row | SMILES | EC50 [1] | Ki [2] [µM] | IC50 [3] [µM] | IC50 [4] [µM] | EC50 [5] | EC50 [6] [µM] | further results
1 | CC1=CC(C)(C)Nc2ccc(-c3cccs3)cc21 | Not Active | 0.237 | 0.7 | 0.416 | Not Active |  | 
2 | CC1=CC(C)(C)Nc2ccc(-c3cc(Br)c(C#N)s3)cc21 | Not Active | 0.249 | 0.25 | 0.242 | Not Active |  | 
3 | CC1=CC(C)(C)Nc2ccc(-c3cc(Br)cs3)cc21 |  | 0.032 | 0.19 | 0.105 |  | 3.5 | 
4 | CC1=CC(C)(C)Nc2ccc(-c3sccc3C)cc21 | Not Active | 0.025 | 0.105 | 0.232 | Not Active |  | 
5 | CN(C)c1ccc([C@H]2C[C@]3(C)[C@@H](CC[C@]3(O)CCCO)[C@@H]3CCC4=CC(=O)CCC4=C32)cc1 [ONAPRISTONE] | Not Active |  |  |  | Not Active |  | 
6 | CC1=CC(C)(C)Nc2ccc(-c3csc(C=O)c3)cc21 | Not Active | 0.037 | 0.102 | 0.245 | Not Active |  | 
7 | CC1=CC(C)(C)Nc2ccc(-c3c(C)sc(C#N)c3C)cc21 | Not Active | 0.036 | 0.15 | 0.124 |  | 0.58 | 
8 | CC1=CC(C)(C)Nc2ccc(-c3sc(C#N)cc3C)cc21 | Not Active | 0.026 | 0.123 | 0.033 |  | 0.5 | IC50 [7]: 0.2 µM; IC50 [8]: 2 µM; IC50 [9]: 0.78 µM
9 | CC1=CC(C)(C)Nc2ccc(-c3ccc(C#N)s3)cc21 |  | 0.055 | 0.08 | 0.027 |  | 1.8 | IC50 [7]: 1.11 µM; IC50 [10]: Not Active; Efficacy [11]: inactive; IC50 [9]: 3.2 µM; EC50 [12]: 2.9 µM
10 | CC1=CC(C)(C)Nc2ccc(-c3sc(C#N)cc3Br)cc21 | Not Active | 0.433 | 0.12 | 0.052 |  | 0.7 | 
11 | CC1=CC(C)(C)Nc2ccc(-c3ccc(C=O)s3)cc21 | Not Active | 0.08 | 0.078 | 0.729 | Not Active |  | 
12 | Cc1cc(C#N)sc1-c1ccc2c(c1)C(C)(C)C(=O)C(C)(C)N2 |  | 0.0039 |  | 0.01 |  |  | IC50 [7]: 0.15 µM; IC50 [8]: 2.1 µM; IC50 [9]: 0.035 µM; EC50 [12]: 0.35 µM
13 | Cc1cc(C#N)sc1-c1ccc2c(c1)C(C)CC(C)(C)N2 (configuration not stated) |  |  |  |  |  |  | IC50 [7]: 0.045 µM; IC50 [8]: 1 µM
14 | CC1=CC(C)(C)Nc2ccc(-c3ccc(Cl)s3)cc21 | Not Active | 0.012 | 0.151 | 0.043 |  | 2.65 | 
15 | CC1=CC(C)(C)Nc2ccc(-c3cc(F)cc(C#N)c3)cc21 | Not Active |  |  |  |  |  | Efficacy [13]: inactive; IC50 [14]: Not Active; IC50 [8]: > 1 µM; Efficacy [15]: inactive
16 | CC1(C)Nc2ccc(-c3csc(C#N)c3)cc2C(C)(C)C1=O |  | 0.0124 |  | 0.014 |  |  | IC50 [7]: 1.1 µM; IC50 [8]: 2.7 µM; IC50 [9]: 0.9 µM; EC50 [12]: 1.19 µM
17 | CC1=CC(C)(C)Nc2ccc(-c3cc(C#N)sc3C)cc21 | Not Active | 0.031 | 0.12 | 0.109 |  | 1.4 | 
18 | CC1=CC(C)(C)Nc2ccc(-c3ccsc3C#N)cc21 | Not Active | > 0.1 | 0.278 | 0.318 | Not Active |  | 
19 | CC1=CC(C)(C)Nc2ccc(-c3ccc(Br)s3)cc21 | Not Active | 0.031 | 0.071 | 0.065 | Not Active |  | 
